One data set is described as follows: Protein binding, mouse. It is filed as in vitro ADME.
Data set [1] is described as follows: Intrinsic clearance, human. It is filed as in vitro ADME. To be noted: human.
For a further data set, the target named is ALK3/BMPR1A (Homo sapiens, UniProt P36894). The data set is described as follows: Kinase assay (33P-ATP filter-binding), ALK3. The format is biochemical. The procedure:
(§1) The kinase assays were carried out briefly as follows. Substrate was prepared in Base Reaction Buffer (20 mM Hepes (pH 7.5), 10 mM MgCl2, 1 mM EGTA, 0.02% Brij35, 0.02 mg/ml BSA, 0.1 mM Na3VO4, 2 mM DTT, 1% DMSO). The indicated kinases was delivered into the substrate solution and allowed to gently mix. Next, the specific compound was delivered in DMSO into the kinase mixture by Acoustic technology (Echo550; nanoliter range), and allowed to incubate for 20 minutes at room temperature. Next, ^33P-ATP was delivered into the reaction mixture to initiate the reaction and allowed to incubate at room temperature. After 2 hours, the reactions were spotted onto P81 ion exchange paper and the kinase activity is detected by the filter-binding method.

A further data set can be described thus: Protein binding, human. It is filed as in vitro ADME.
A further data set concerns the target ALK1/ACVRL1 (Homo sapiens, UniProt P37023). The data set can be described thus: Kinase assay (33P-ATP filter-binding), ALK1. The format is biochemical. The procedure: as §1
The next data set concerns the target T1, ALK2 (Q207D) (Homo sapiens, UniProt Q04771, Q207D).
T1 sequence (Q04771 21-509 Q207D): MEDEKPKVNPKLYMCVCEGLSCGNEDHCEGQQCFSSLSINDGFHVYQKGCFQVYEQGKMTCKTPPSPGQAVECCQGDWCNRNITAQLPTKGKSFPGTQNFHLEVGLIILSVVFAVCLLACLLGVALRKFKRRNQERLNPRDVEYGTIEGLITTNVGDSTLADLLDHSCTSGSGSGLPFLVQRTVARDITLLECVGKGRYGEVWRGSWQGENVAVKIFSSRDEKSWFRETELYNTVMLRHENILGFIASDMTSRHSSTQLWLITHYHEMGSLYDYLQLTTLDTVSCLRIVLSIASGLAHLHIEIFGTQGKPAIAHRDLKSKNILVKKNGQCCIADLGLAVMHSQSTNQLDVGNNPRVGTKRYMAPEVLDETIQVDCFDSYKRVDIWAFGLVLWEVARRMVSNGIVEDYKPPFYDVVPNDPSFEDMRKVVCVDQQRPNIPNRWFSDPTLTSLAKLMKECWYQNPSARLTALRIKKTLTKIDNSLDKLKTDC
The data set can be described thus: Kinase assay (33P-ATP filter-binding), ALK2 Q207D. To be noted: Q207D mutant, 20 mM; read-out: Kinase Selectivity ALK2 (Q207D, 20 mM). The format is biochemical. The protocol:
as §1

A further data set deals with T2, ALK2/ACVR1 (Homo sapiens, UniProt Q04771).
T2 sequence (Q04771 21-509): T1 sequence (Q04771 21-509 Q207D) with D187Q
The data set can be described thus: Kinase assay (33P-ATP filter-binding), ALK2. It is filed as biochemical. The procedure:
as §1

For another data set, the target named is T3, ALK2 (R206H) (Homo sapiens, UniProt Q04771, R206H).
T3 sequence (Q04771 21-509 R206H): T1 sequence (Q04771 21-509 Q207D) with R186H, D187Q
The data set is described as follows: Kinase assay (33P-ATP filter-binding), ALK2 R206H. Particulars: R206H mutant, 20 mM; read-out: Kinase Selectivity ALK2 (R206H, 20 mM). It is filed as biochemical. The procedure:
as §1

Data set [2] can be described thus: Intrinsic clearance, mouse. It is filed as in vitro ADME. Particulars: mouse.
The mark [3] stands for this setting: CL-Hep, value in parentheses, read-out: Intrinsic Clearance Human (CL-Hep).
The mark [4] stands for this setting: 1 mM, read-out: Kinase Selectivity ALK3/BMPR1A (1 mM).
Where [5] appears, read: read-out: Kinase Selectivity ALK1/ACVRL1.
Where [6] appears, read: 20 mM, read-out: Kinase Selectivity ALK2/ACVR1 (20 mM).
Where [7] appears, read: CL-Hep, value in parentheses, read-out: Intrinsic Clearance Mouse (CL-Hep).
The mark [8] stands for this setting: read-out: Intrinsic Clearance Mouse.
The mark [9] stands for this setting: read-out: Intrinsic Clearance Human.

Changes are numbered by the printed parent chain. Where two headings read alike, the source gives them in different places. Some results are limits rather than exact numbers.

Sequence of ALK3/BMPR1A (P36894 24-532): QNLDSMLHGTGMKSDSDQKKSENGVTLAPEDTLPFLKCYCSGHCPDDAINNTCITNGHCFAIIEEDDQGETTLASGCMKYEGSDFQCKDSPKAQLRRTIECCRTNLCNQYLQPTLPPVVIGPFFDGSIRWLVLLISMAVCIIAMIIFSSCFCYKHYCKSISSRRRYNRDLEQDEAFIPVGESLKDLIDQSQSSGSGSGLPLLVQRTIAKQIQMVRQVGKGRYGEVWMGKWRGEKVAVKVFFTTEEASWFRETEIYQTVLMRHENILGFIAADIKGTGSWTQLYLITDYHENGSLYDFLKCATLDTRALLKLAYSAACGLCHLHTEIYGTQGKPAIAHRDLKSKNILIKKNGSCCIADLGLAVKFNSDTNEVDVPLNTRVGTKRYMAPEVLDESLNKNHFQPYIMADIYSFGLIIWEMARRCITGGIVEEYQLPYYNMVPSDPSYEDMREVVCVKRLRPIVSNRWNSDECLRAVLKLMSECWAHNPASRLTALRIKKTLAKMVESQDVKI
Sequence of ALK1/ACVRL1 (P37023 22-503): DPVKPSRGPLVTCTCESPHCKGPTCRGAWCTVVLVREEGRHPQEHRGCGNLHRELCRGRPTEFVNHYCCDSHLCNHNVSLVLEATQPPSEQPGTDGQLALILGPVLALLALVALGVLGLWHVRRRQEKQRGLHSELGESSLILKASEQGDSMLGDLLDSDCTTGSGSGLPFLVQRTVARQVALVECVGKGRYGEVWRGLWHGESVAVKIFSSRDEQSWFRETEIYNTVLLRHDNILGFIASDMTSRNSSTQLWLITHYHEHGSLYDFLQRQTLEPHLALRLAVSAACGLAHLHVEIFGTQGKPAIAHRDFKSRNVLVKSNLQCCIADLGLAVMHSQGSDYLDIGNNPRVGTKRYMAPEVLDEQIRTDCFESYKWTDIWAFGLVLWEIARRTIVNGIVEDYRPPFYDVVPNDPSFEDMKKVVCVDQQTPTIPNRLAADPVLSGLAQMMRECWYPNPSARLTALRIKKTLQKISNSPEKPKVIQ

Turning to `Cc1cc(-c2cnc3cc(-c4ccc(C5COCCN5)cc4)ccn23)c2ccccc2n1` (stereo not shown) [Compound 21], the “Protein Binding (% Free) Mouse” value in the data set “Protein binding, mouse” turned out to be 6.24 % Free. Besides, in [1] (setting [3]), the CLint scaled turned out to be 17.5 mL/min/kg. Moreover, the IC50 at ALK3/BMPR1A (setting [4]) and on ALK1/ACVRL1 (setting [5]) was less than 5.1 nM throughout. Besides, the “Protein Binding (% Free) Human” value in “Protein binding, human” was 3.05 % Free.
With `Cc1cc(-c2cnc3cc(-c4ccc(C5COCCN5)cc4)ccn23)c2cc(F)ccc2n1` (stereo not shown) [Compound 11], in “Protein binding, mouse”, the “Protein Binding (% Free) Mouse” value is 3.23 % Free. Also, the CLint scaled in [1] (setting [3]) stood at 17.4 mL/min/kg. Moreover, the IC50 was less than 5.1 nM at ALK3/BMPR1A (setting [4]) and 23.5 nM at ALK1/ACVRL1 (setting [5]). Besides, in the data set “Protein binding, human”, the “Protein Binding (% Free) Human” value worked out at 1.52 % Free.
`c1ncc2scc(-c3cnc4cc(-c5ccc(C6CNCCN6)cc5)ccn34)c2n1` (stereo not shown) [Compound 35]: the IC50 at ALK2 (Q207D) came out at 65.8 nM; on ALK2/ACVR1 (setting [6]) it was 157 nM; at ALK2 (R206H), 214 nM; at ALK3/BMPR1A (setting [4]), 9450 nM; at ALK1/ACVRL1 (setting [5]), 14200 nM.
As for `Cc1cc(-c2cnc3cc(-c4ccc(C5COCCCN5)cc4)ccn23)c2cc(F)cc(F)c2n1` (stereo not shown) [Compound 13], the IC50 on ALK2 (Q207D) was less than 5.1 nM; at ALK2/ACVR1 (setting [6]), less than 5.1 nM; on ALK2 (R206H), less than 5.1 nM; on ALK3/BMPR1A (setting [4]), less than 5.1 nM; at ALK1/ACVRL1 (setting [5]) it was 16 nM. Also, the “Protein Binding (% Free) Mouse” value in “Protein binding, mouse” is given as 2.3 % Free. In addition, the CLint scaled in data set [2] (setting [7]) is less than 32.9 mL/min/kg; in data set [2] (setting [8]), less than 49.5 mL/min/kg; in [1] (setting [3]), 16.6 mL/min/kg; in data set [1] (setting [9]), 97.2 mL/min/kg. Further, the “Protein Binding (% Free) Human” value in the data set “Protein binding, human” is 1.85 % Free.
`Cc1cc(-c2cnc3cc(-c4ccc(N5CCC6(CCCNC6)CC5)cc4)ccn23)c2cc(F)cc(F)c2n1` [Compound 3]: the IC50 at ALK2 (Q207D) came out at 999 nM; at ALK2/ACVR1 (setting [6]) it was 1090 nM; at ALK2 (R206H) it was 1120 nM; on ALK3/BMPR1A (setting [4]) it was 332 nM; on ALK1/ACVRL1 (setting [5]), 10300 nM.
Take `Cc1cc(-c2cnc3cc(-c4ccc(C5COC(C)CN5)cc4)ccn23)c2cc(F)ccc2n1` (stereo not shown) [Compound 15]: the IC50 is less than 5.1 nM at ALK2 (Q207D); less than 5.1 nM at ALK2/ACVR1 (setting [6]); less than 5.1 nM on ALK2 (R206H); less than 5.1 nM on ALK3/BMPR1A (setting [4]); 34.1 nM on ALK1/ACVRL1 (setting [5]). For the same compound, in “Protein binding, mouse”, the “Protein Binding (% Free) Mouse” value worked out at 1.01 % Free. Moreover, the CLint scaled was found to be 38.1 mL/min/kg in [2] (setting [7]), 66.3 mL/min/kg in data set [2] (setting [8]), 15.7 mL/min/kg in data set [1] (setting [3]) and 74 mL/min/kg in data set [1] (setting [9]). Moreover, in the data set “Protein binding, human”, the “Protein Binding (% Free) Human” value came to 1.26 % Free.
`Cc1cc(-c2cnc3cc(-c4ccc(N5CCC6(CCCCN6)CC5)cc4)ccn23)c2cc(F)cc(F)c2n1` [Compound 25]: the IC50 on ALK2 (Q207D) amounted to 170 nM; at ALK2/ACVR1 (setting [6]) it was 55.5 nM; on ALK2 (R206H), 258 nM; on ALK3/BMPR1A (setting [4]), 54.7 nM; at ALK1/ACVRL1 (setting [5]) it was 777 nM. Moreover, the “Protein Binding (% Free) Mouse” value in the data set “Protein binding, mouse” is listed as 0.55 % Free. Also, the CLint scaled is 97.8 mL/min/kg in data set [2] (setting [7]), 198 mL/min/kg in [2] (setting [8]), 14 mL/min/kg in [1] (setting [3]) and 46.3 mL/min/kg in data set [1] (setting [9]). The “Protein Binding (% Free) Human” value in “Protein binding, human” amounted to 1.43 % Free.
With `Cc1cc(-c2cnc3cc(-c4ccc(N5CCC6(CCCNC6)C5)cc4)ccn23)c2cc(F)cc(F)c2n1` (stereo not shown) [Compound 6], the IC50 amounted to 200 nM on ALK2 (Q207D); 171 nM at ALK2/ACVR1 (setting [6]); 218 nM at ALK2 (R206H); 19.9 nM on ALK3/BMPR1A (setting [4]); 3460 nM on ALK1/ACVRL1 (setting [5]).
In the case of `Cc1cc(-c2cnc3cc(-c4ccc(N5CCCC6(CCCN6)C5)cc4)ccn23)c2cc(F)cc(F)c2n1` (stereo not shown) [Compound 2], the IC50 worked out at 114 nM on ALK2 (Q207D); 147 nM at ALK2/ACVR1 (setting [6]); 128 nM at ALK2 (R206H); 45 nM at ALK3/BMPR1A (setting [4]); 936 nM at ALK1/ACVRL1 (setting [5]).
For `c1cc(-c2cnc3cc(-c4ccc(C5CNCCN5)cc4)ccn23)ccn1` (stereo not shown) [Compound 30] the same measures were 35 nM, 68.8 nM, 96.7 nM, 55.1 nM and 447 nM.
For the compound `O=S(=O)(F)Oc1ccc(-c2cnc3cc(-c4ccc(N5CCOCC5)cc4)ccn23)c2ccccc12` [Compound 38], the IC50 at ALK2 (Q207D) is 10300 nM; at ALK2/ACVR1 it was more than 30000 nM; on ALK2 (R206H), 15000 nM; on ALK3/BMPR1A, 23100 nM; on ALK1/ACVRL1 (Kinase Selectivity ALK1/ACVRL1), more than 30000 nM.
Consider `Cc1cc(-c2cnc3cc(-c4ccc(N5CCC6(CCNC6)CC5)cc4)ccn23)c2cc(F)cc(F)c2n1` [Compound 7], for which the IC50 at ALK2 (Q207D) was 745 nM; on ALK2/ACVR1 (setting [6]) it was 770 nM; on ALK2 (R206H), 1070 nM; on ALK3/BMPR1A (setting [4]), 434 nM; on ALK1/ACVRL1 (setting [5]), 5950 nM.
For `Cc1cc(-c2cnc3cc(-c4ccc(N5CCC6(CCC6)C5)cc4)ccn23)c2cc(F)cc(F)c2n1` [Compound 8] the same measures were more than 50000 nM, more than 50000 nM, more than 50000 nM, 43700 nM and more than 50000 nM.
For `Cc1cc(-c2cnc3cc(-c4ccc(N5CCC6(CCC6)CC5)cc4)ccn23)c2cc(F)cc(F)c2n1` [Compound 9] the same measures were more than 50000 nM, more than 50000 nM, more than 50000 nM, 40900 nM and more than 50000 nM.
As to `Cc1cc(-c2cnc3cc(-c4ccc(C5C[C@@H](C)N[C@@H](C)C5)cc4)ccn23)c2cc(F)cc(F)c2n1` (stereo partly shown) [Compound 1], the IC50 was determined as 68.1 nM on ALK2 (Q207D); 54.2 nM on ALK2/ACVR1 (setting [6]); 60.9 nM on ALK2 (R206H); 28.5 nM on ALK3/BMPR1A (setting [4]); 880 nM at ALK1/ACVRL1 (setting [5]).
For `Cc1cc(-c2cnc3cc(-c4ccc(N5CCNC6(CCC6)C5)cc4)ccn23)c2cc(F)cc(F)c2n1` [Compound 4] the same measures were 24 nM, 29 nM, 25.5 nM, 2.52 nM and 386 nM.
The matching figures for `Cc1cc(-c2cnc3cc(-c4ccc(N5CCC6(CCNCC6)C5)cc4)ccn23)c2cc(F)cc(F)c2n1` [Compound 5]: 1740 nM, 2370 nM, 2510 nM, 1330 nM and 35300 nM.

The values above are taken from patent US10745400B2, “Inhibition of BMP signaling, compounds, compositions and uses thereof” (Vanderbilt University, priority 2018, dated 2020).
